Like-named read-outs stand apart in the source and are kept apart here.
Assays:
DOHH2 cells = experiment: Cell proliferation assay (MTS), DOHH2 cells; assay type: cell-based; details: DOHH2 (DSMZ ACC 47) cell proliferation, 5000 cells/well, 120 h, MTS, mechanism-based readout of Bcl-2 inhibition, read-out: DOHH2 IC50
Text: (§1) MTS testing kit was purchased from Promega. The RPMI-1640, Fetal bovine serum and Penicillin-Streptomycin were purchased from Gibco. Dimethyl sulfoxide (DMSO) was purchased from Sigma.
(§2) To investigate whether a compound is able to inhibit the activity of Bcl-2 in cells, a mechanism-based assay using DOHH2 (DSMZ No.® ACC 47) and RS4; 11 (ATCC® CRL-1873™) cell was developed. In this assay, inhibition of Bcl-2 was detected by the inhibition of DOHH2 and RS4; 11 cells proliferation. DOHH2 and RS4; 11 cells were cultured in culture flasks to 40-80% confluence in RPMI-1640 plus 10% fetal bovine serum. Cells were collected and plated onto 96-well plates at desired cell density (DOHH2: 5000 cells/well; RS4; 11: 30000 cells/well). Plates were incubated overnight at 37° C., with 5% CO2 to adhere. Compounds were added to the plates, and the final compound concentrations were 10000, 3333, 1111, […], 124, 41, 14, 4.6 and 1.5 nM. Plates plated with DOHH2 or RS4; 11 cells were placed at 37° C., with 5% CO2 for 120 h (DOHH2) or 72 h (RS4; 11) respectively. 20 μl MTS/100 μl medium mixture solution were added to each well and incubate the plates for exactly 2 hours. The reaction was stopped by adding 25 μl 10% SDS per well. Measure absorbance at 490 nm and 650 nm (reference wavelength). ICso was calculated using GraphPad Prism 5.0.

RS4; 11 cells = experiment: Cell proliferation assay (MTS), RS4; 11 cells; assay type: cell-based; details: RS4, 11 (ATCC CRL-1873) cell proliferation, 30000 cells/well, 72 h, MTS, mechanism-based readout of Bcl-2 inhibition, read-out: RS4, 11 IC50
Text: as §1, §2

CC1(C)CCC(CN2CCN(c3ccc(C(=O)NS(=O)(=O)c4ccc(NCC5CCC(N=S6(=O)CCCC6)CC5)c([N+](=O)[O-])c4)c(Oc4cnc5[nH]ccc5c4)c3)CC2)=C(c2ccc(Cl)cc2)C1 (stereo not shown) [Example 53, 2-((1H-pyrrolo[2,3-b]pyridin-5-yl)oxy)-4-(4-((4′-chloro-5,5-dimethyl-3,4,5,6-tetrahydro-[1,1′-biphenyl]-2-yl)methyl)piperazin-1-yl)-N-((3-nitro-4-(((4-((1-oxidotetrahydro-1λ^6-thiophen-1-ylidene)amino)cyclohexyl)methyl)amino)phenyl)sulfonyl)benzamide]
IC50 (DOHH2 cells; Homo sapiens, DOHH-2, 120 h): 11 nM | IC50 (RS4; 11 cells; Homo sapiens, RS4-11, 72 h): 7 nM

C[C@@H](CCN1CCS(=O)(=NC(=O)C2CC2)CC1)Nc1ccc(S(=O)(=O)NC(=O)c2ccc(N3CCN(CC4=C(c5ccc(Cl)cc5)CC(C)(C)CC4)CC3)cc2Oc2cnc3[nH]ccc3c2)cc1S(=O)(=O)C(F)(F)F [Example 91, (S)-2-((1H-pyrrolo[2,3-b]pyridin-5-yl)oxy)-4-(4-((4′-chloro-5,5-dimethyl-3,4,5,6-tetrahydro-[1,1′-biphenyl]-2-yl)methyl)piperazin-1-yl)-N-((4-((4-(1-((cyclopropanecarbonyl)imino)-1-oxido-1λ^6-thiomorpholino)butan-2-yl)amino)-3-((trifluoromethyl)sulfonyl)phenyl)sulfonyl)benzamide]
IC50 (DOHH2 cells; Homo sapiens, DOHH-2, 120 h): 255 nM | IC50 (RS4; 11 cells; Homo sapiens, RS4-11, 72 h): 119 nM

C[C@@H](CN1CCP(C)(=O)CC1)Nc1ccc(S(=O)(=O)NC(=O)c2ccc(N3CCN(CC4=C(c5ccc(Cl)cc5)CC(C)(C)CC4)CC3)cc2Oc2cnc3[nH]ccc3c2)cc1[N+](=O)[O-] [Example 17, (S)-2-((1H-pyrrolo[2,3-b]pyridin-5-yl)oxy)-4-(4-((4′-chloro-5,5-dimethyl-3,4,5,6-tetrahydro-[1,1′-biphenyl]-2-yl)methyl)piperazin-1-yl)-N-((4-((1-(4-methyl-4-oxido-1,4-azaphosphinan-1-yl)propan-2-yl)amino)-3-nitrophenyl)sulfonyl)benzamide]
IC50 (DOHH2 cells; Homo sapiens, DOHH-2, 120 h): 132 nM | IC50 (RS4; 11 cells; Homo sapiens, RS4-11, 72 h): 111 nM

CC1(C)CCC(CN2CCN(c3ccc(C(=O)NS(=O)(=O)c4ccc(NCC5CCC(NS(C)(=N)=O)CC5)c([N+](=O)[O-])c4)c(Oc4cnc5[nH]ccc5c4)c3)CC2)=C(c2ccc(Cl)cc2)C1 (stereo not shown) [Example 56, 4-(4-{[2-(4-chlorophenyl)-4,4-dimethylcyclohexyl-1-en-1-yl]methyl}piperazin-1-yl)-N-(4-{[(4-methanesulfono-imidamidocyclohexyl)methyl]amino}-3-nitrobenzenesulfonyl)-2-{1H-pyrrolo[2,3-b]pyridine-5-yloxy}benzamide]
IC50 (DOHH2 cells): 50 nM | IC50 (RS4; 11 cells): 12 nM

CC1(C)CCC(CN2CCN(c3ccc(C(=O)NS(=O)(=O)c4ccc(NC(CF)CN5CCP(C)(=O)CC5)c([N+](=O)[O-])c4)c(Oc4cnc5[nH]ccc5c4)c3)CC2)=C(c2ccc(Cl)cc2)C1 (stereo not shown) [Example 20, 2-((1H-pyrrolo[2,3-b]pyridin-5-yl)oxy)-4-(4-((4′-chloro-5,5-dimethyl-3,4,5,6-tetrahydro-[1,1′-biphenyl]-2-yl)methyl)piperazin-1-yl)-N-((4-((1-fluoro-3-(4-methyl-4-oxido-1,4-azaphosphinan-1-yl)propan-2-yl)amino)-3-nitrophenyl)sulfonyl)benzamide]
IC50 (DOHH2 cells; Homo sapiens, DOHH-2, 120 h): 388 nM | IC50 (RS4; 11 cells; Homo sapiens, RS4-11, 72 h): 333 nM

CCS(=O)(CC)=NC1CCC(CNc2ccc(S(=O)(=O)NC(=O)c3ccc(N4CCN(CC5=C(c6ccc(Cl)cc6)CC(C)(C)CC5)CC4)cc3Oc3cnc4[nH]ccc4c3)cc2[N+](=O)[O-])CC1 (stereo not shown) [Example 9A, 2-((1H-pyrrolo[2,3-b]pyridin-5-yl)oxy)-4-(4-((4′-chloro-5,5-dimethyl-3,4,5,6-tetrahydro-[1,1′-biphenyl]-2-yl)methyl)piperazin-1-yl)-N-((4-((((1r,4r)-4-((diethyl(oxo)-λ^6-sulfanylidene)amino)cyclohexyl)methyl)amino)-3-nitrophenyl)sulfonyl)benzamide]
IC50 (DOHH2 cells; Homo sapiens, DOHH-2, 120 h): 67 nM | IC50 (RS4; 11 cells; Homo sapiens, RS4-11, 72 h): 4 nM

CC1(C)CCC(CN2CCN(c3ccc(C(=O)NS(=O)(=O)c4ccc(NCC(CF)N5CCP(C)(=O)CC5)c([N+](=O)[O-])c4)c(Oc4cnc5[nH]ccc5c4)c3)CC2)=C(c2ccc(Cl)cc2)C1 (stereo not shown) [Example 13, 2-((1H-pyrrolo[2,3-b]pyridin-5-yl)oxy)-4-(4-((4′-chloro-5,5-dimethyl-3,4,5,6-tetrahydro-[1,1′-biphenyl]-2-yl)methyl)piperazin-1-yl)-N-((4-((3-fluoro-2-(4-methyl-4-oxido-1,4-azaphosphinan-1-yl)propyl)amino)-3-nitrophenyl)sulfonyl)benzamide]
IC50 (DOHH2 cells; Homo sapiens, DOHH-2, 120 h): 615 nM | IC50 (RS4; 11 cells; Homo sapiens, RS4-11, 72 h): 397 nM

CC1(C)CCC(CN2CCN(c3ccc(C(=O)NS(=O)(=O)c4ccc(NCC5CC(N=S(C)(C)=O)C5)c([N+](=O)[O-])c4)c(Oc4cnc5[nH]ccc5c4)c3)CC2)=C(c2ccc(Cl)cc2)C1 (stereo not shown) [Example 59, 2-((1H-pyrrolo[2,3-b]pyridin-5-yl)oxy)-4-(4-((4′-chloro-5,5-dimethyl-3,4,5,6-tetrahydro-[1,1′-biphenyl]-2-yl)methyl)piperazin-1-yl)-N-((4-(((3-((dimethyl(oxo)-λ^6-sulfanylidene)amino)cyclobutyl)methyl)amino)-3-nitrophenyl)sulfonyl)benzamide]
IC50 (DOHH2 cells; Homo sapiens, DOHH-2, 120 h): 82 nM | IC50 (RS4; 11 cells; Homo sapiens, RS4-11, 72 h): 35 nM

CCOC(=O)N=S1(=O)CCN(C[C@H](C)Nc2ccc(S(=O)(=O)NC(=O)c3ccc(N4CCN(CC5=C(c6ccc(Cl)cc6)CC(C)(C)CC5)CC4)cc3Oc3cnc4[nH]ccc4c3)cc2[N+](=O)[O-])CC1 [Example 72, ethyl (S)-(4-(2-((4-(N-(2-((1H-pyrrolo[2,3-b]pyridin-5-yl)oxy)-4-(4-((4′-chloro-5,5-dimethyl-3,4,5,6-tetrahydro-[1,1′-biphenyl]-2-yl)methyl)piperazin-1-yl)benzoyl)sulfamoyl)-2-nitrophenyl)amino)propyl)-1-oxido-1λ^6-thiomorpholin-1-ylidene) carbamate]
IC50 (DOHH2 cells; Homo sapiens, DOHH-2, 120 h): 119 nM | IC50 (RS4; 11 cells; Homo sapiens, RS4-11, 72 h): 68 nM

CC1(C)CCC(CN2CCN(c3ccc(C(=O)NS(=O)(=O)c4ccc(NCCN5CCP(C)(=O)CC5)c([N+](=O)[O-])c4)c(Oc4cnc5[nH]ccc5c4)c3)CC2)=C(c2ccc(Cl)cc2)C1 [Example 2, 2-((1H-pyrrolo[2,3-b]pyridin-5-yl)oxy)-4-(4-((4′-chloro-5,5-dimethyl-3,4,5,6-tetrahydro-[1,1′-biphenyl]-2-yl)methyl)piperazin-1-yl)-N-((4-((2-(4-methyl-4-oxido-1,4-azaphosphinan-1-yl)ethyl)amino)-3-nitrophenyl)sulfonyl)benzamide]
IC50 (DOHH2 cells; Homo sapiens, DOHH-2, 120 h): 427 nM | IC50 (RS4; 11 cells; Homo sapiens, RS4-11, 72 h): 163 nM

CC1(C)CCC(CN2CCN(c3ccc(C(=O)NS(=O)(=O)c4ccc(NCC5CCC(N=S6(=O)CCOCC6)CC5)c(S(=O)(=O)C(F)(F)F)c4)c(Oc4cnc5[nH]ccc5c4)c3)CC2)=C(c2ccc(Cl)cc2)C1 (stereo not shown) [Example 55, 2-((1H-pyrrolo[2,3-b]pyridin-5-yl)oxy)-4-(4-((4′-chloro-5,5-dimethyl-3,4,5,6-tetrahydro-[1,1′-biphenyl]-2-yl)methyl)piperazin-1-yl)-N-((4-(((4-((4-oxido-1,4λ^6-oxathian-4-ylidene)amino)cyclohexyl)methyl)amino)-3-((trifluoromethyl)sulfonyl)phenyl)sulfonyl) benzamide]
IC50 (DOHH2 cells; Homo sapiens, DOHH-2, 120 h): 346 nM | IC50 (RS4; 11 cells; Homo sapiens, RS4-11, 72 h): 231 nM

Source: patent US11053239B2, “Compounds as BLC-2-selective apoptosis-inducing agents” (Fochon Pharmaceuticals, Ltd., priority 2017, dated 2021)
